Test results: article PMC6357218 (Molecular Therapy Oncolytics, 2018)

Biological target: wild-type (WT) FKBP12 (in iRC9) (Homo sapiens, UniProt P62942)
Experiment: Cross-activation of iRC9 apoptosis by high rimiducid in transfected HEK293 cells
Assay type: cell-based

Sequence of wild-type (WT) FKBP12 (in iRC9) (P62942 2-108): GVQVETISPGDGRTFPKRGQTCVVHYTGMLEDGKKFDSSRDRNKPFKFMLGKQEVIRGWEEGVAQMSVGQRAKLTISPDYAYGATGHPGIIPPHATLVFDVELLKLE

Cross-activation of iRC9 apoptosis by high rimiducid in transfected HEK293 cells: > 100 nM
Compound: CC[C@H](C(=O)N1CCCC[C@H]1C(=O)O[C@H](CCc1ccc(OC)c(OC)c1)c1cccc(OCC(=O)NCCNC(=O)COc2cccc([C@@H](CCc3ccc(OC)c(OC)c3)OC(=O)[C@@H]3CCCCN3C(=O)[C@@H](CC)c3cc(OC)c(OC)c(OC)c3)c2)c1)c1cc(OC)c(OC)c(OC)c1 [Rim, rimiducid]
